# Laboratory results published in patent US4242453A, “Cultivating streptomyces to produce an esterase inhibitor” (Zaidan Hojin Biseibutsu Kagaku Kenkyu Kai, priority 1977, dated 1980).
# Entries after “also recorded” stand apart in the source; their conditions may differ.
# Columns and labels:
# [1] = system: D.T.H. to SRBC in mice; test: Effect on cell-mediated immunity (Delayed Type Hypersensitivity to SRBC, footpad swelling); type: in vivo, dd/Y mice; settings: for Increase of footpad thickness: 24 hours after eliciting injection of 10^8 SRBC
# Method: Effect of esterastin on the cellular immunity was tested according to a known Delayed Type Hypersensitivity (D.T.H.) technique (see P. H. Lagrange, G. B. Mackaness and T. E. Mille: "J. Exp. Med.", 139, 1529-1539 (1974)) using mice immunized with sheep red blood cells as the antigen.
# Thus, 10^8 sheep red blood cells suspended in 0.05 ml of physiological saline solution were immunized by subcutaneous injection to the one side of dd/Y mice hind footpad (5 mice per group, female, 6-weeks old) to establish delayed-type hypersensitivity. At the same time as this immunization, 1 mg/mouse, 250 mcg/mouse, 62.5 mcg/mouse or 15.6 mcg/mouse of esterastin were intraperitoneally injected to each test mouse. Four days later, 10^8 sheep rod blood cells were injected subcutaneously into the other side of each test mouse footpad for elicitation of D.T.H. response. 24 Hours after the eliciting injection, the thickness (in mm) of the footpad was measured to evaluate the degree of the swelling in the footpad which received the eliciting injection of sheep rod blood cells. The extent of the swelling in the footpad serves as a measure to estimate the cellular immunity involved.
# [2] = target: esterase of pig pancreas; test: Inhibition of esterase (decomposition of p-nitrophenyl acetate by crude lipase preparation); type: biochemical
# Method: Thus, a commercially available, crude lipase preparation obtained from pig pancreas is dissolved to a concentration of 0.5% (by weight) in a 0.05 M phosphate buffered solution (pH 7.0) containing 0.2% "Triton X-100" (a trade name of an emulsifier consisting of a polyethyleneglycol alkylphenylether, a product of Rohm & Haas Co., U.S.A.). 0.03 ml of this lipase solution, 2.92 ml of 0.05 M phosphate buffered solution (pH 7.0) and 0.025 ml of a solution containing an esterastin sample to be assayed are mixed together, and the resulting mixture (2.975 ml) is warmed at 20° C. for 3 minutes and then admixed with 0.025 ml of a solution containing 10 mg/ml of p-nitrophenyl acetate in methanol to start the reaction of p-nitrophenyl acetate with lipase. After the reaction was effected at 20° C. for 30 minutes, absorbance (a) at 400 nm of the resulting reaction solution is measured. On the other hand, absorbance (b) at 400 nm of a control reaction solution obtained from the blank test using the 0.05 M phosphate buffered solution containing no esterastin is measured in the same way as above. Degree (%) of inhibition to esterase is calculated according to the following equation: [formula]
# [3] = system: cultured cells; test: Cell toxicity to cultured cells; type: cell-based; settings: concentration of 10 mcg/ml
# [4] = Solubility in solvents; type: physicochemical
# [5] = system: mice; test: Acute toxicity in mice; type: in vivo; settings: 250 mg/kg, intraperitoneal injection
# Excerpt: As known substances which inhibit the esterase, there may be mentioned paradoxon and di-isopropyl fluorophosphate etc., which are highly toxic compounds. […] In these respects, it also can be confirmed that esterastin is a novel substance.
# [6] = system: antibody-forming cells per spleen; test: Effect on formation of humoral antibody (Jerne plaque technique, SRBC-immunized mice); type: in vivo, dd/Y mice; settings: for Number of antibody-forming cells per spleen (± S.E.): 10^8 SRBC i.v., day 4
# Method: Groups of dd/Y mice (5 female mice per group, 6-8 weeks old) were immunized with 10^8 red blood cells of sheep as the anitgen (in the form of a suspension in physiological saline solution) by intravenous injection to develop the immunity. At the same time, 1 mg, 250 mcg, 62.5 mcg or 15.6 mcg of esterastin (in the form of a suspension in 1% DMSO-saline) per mouse were intraperitoneally injected into the separate groups of mice, respectively. On the 4 days after the immunization, the mice treated were sacrificed, spleen was teased and the number of the antibody-forming cells present in each mouse spleen was enumerated according to the method of Jerne (see N. K. Jerne, A. A. Nordin and C. Henry: "The agar plaque technique for recognizing antibody-producing cells. Cell-bound Antibodies." ed. B. Amos and H. Koprowski pp. 109-122, Wister Institute Press. Philadelphia, 1963).
smiles,measurement,setting,value
CCCCCC=CCC=CCC(CC1OC(=O)C1CCCCCC)OC(=O)C(CC(N)=O)NC(C)=O (stereo not shown) [esterastin],effect on development of D.T.H. (in words),[1]; 1 mg to 250 mcg to mice,remarkably suppresses the development of D.T.H.
same,Increase of footpad thickness,[1]; 1 mg/mouse i.p.,3.8 × 0.1 mm
same,Increase of footpad thickness,[1]; 62.5 mcg/mouse i.p.,6.2 × 0.1 mm
same,Increase of footpad thickness,[1]; 250 mcg/mouse i.p.,3.0 × 0.1 mm
same,IC50,"[2]; p-nitrophenyl acetate as the substrate, read-out: concentration giving 50% inhibition of esterase",0.041 nM
same,"ID50, dose giving 50% inhibition to esterase","[2]; p-nitrophenyl acetate substrate, pH 7.0, 20° C., 30 minutes",0.2 ng/mL
same,cell toxicity to the cultured cells,[3],no cell toxicity
same,solubility in petroleum ether and hexane,[4]; petroleum ether and hexane,sparingly soluble; also recorded: substantially insoluble
same,solubility in organic solvents,"[4]; pyridine, dimethylsulfoxide, methanol, ethanol, acetone, ethyl acetate, butyl acetate, chloroform and benzene",readily soluble
same,solubility in water,[4]; water,sparingly soluble; also recorded: substantially insoluble
same,acute toxicity,[5],no toxicity was observed at all; also recorded: does not give any sympton of toxicity at all
same,Number of antibody-forming cells per spleen (± S.E.),[6]; 1 mg per mouse i.p.,"45,300 ± 3,300"
same,effect on number of the antibody forming cells (in words),[6]; 1 mg to 62.5 mcg to mice,remarkably reduces the number of the antibody forming cells
same,Number of antibody-forming cells per spleen (± S.E.),[6]; 15.6 mcg per mouse i.p.,"173,000 ± 19,600"
same,Number of antibody-forming cells per spleen (± S.E.),[6]; 62.5 mcg per mouse i.p.,"55,000 ± 5,700"
same,Number of antibody-forming cells per spleen (± S.E.),[6]; 250 mcg per mouse i.p.,"52,000 ± 2,300"
